These results are taken from US20050123902A1, “Human papillomavirus inhibitors” (priority 2003, published 2005).

The structures appear in SMILES notation.

This test addresses HPV-16 E2 protein (Human papillomavirus type 16, UniProt P03120). As to the kind of experiment: Determination of dissociation constants by surface plasmon resonance (Biacore 3000, captured GST-E2 fusion). The format is binding. To be noted: steady state model, PBST containing 2% (v/v) DMF, read-out: dissociation constant. The procedure: Surface Plasmon Resonance Instrument. Surface plasmon resonance experiments were performed with a Biacore® 3000 Biosensor (Biacore AB, Uppsala, Sweden). To keep the instrument in good working condition, a series of washing steps were performed on a weekly basis. In addition to the prescribed maintenance washes, the fluidic system was primed three times in a row with the following reagents: 0.5% (w/v) SDS, 6 M urea, 1% (v/v) acetic acid, and 0.2 M NaHCO3. When not in use, a standby program injects water at a flow rate of 5 μL/minute to prevent salt build-up in the lines or integrated fluidic cartridge. Whenever running buffer was changed, the system was primed three times in order to equilibrate the sensor chip and the instrument.
Immobilization of anti-GST Antibody. A CM5 sensor chip was docked and the system was primed three times with filtered and degassed PBST containing 5% (v/v) DMF. Affinity purified and sterile filtered goat-anti-GST IgG (0.8 mg/mL in 150 mM NaCl) from the Biacore GST kit for fusion capture was diluted to 30 μg/mL in 10 mM sodium acetate, pH 5.0 (100 μL per immobilization). Two flow cells were activated with 1:1 NHS:EDC (N-hydroxysuccinimide:[…]) for 8 minutes at a flow rate of 5 μL/min using the “surface preparation: immobilization: amine coupling” wizard application. […]

Sequence of HPV-16 E2 protein (P03120 whole entry, the tested form may be a part): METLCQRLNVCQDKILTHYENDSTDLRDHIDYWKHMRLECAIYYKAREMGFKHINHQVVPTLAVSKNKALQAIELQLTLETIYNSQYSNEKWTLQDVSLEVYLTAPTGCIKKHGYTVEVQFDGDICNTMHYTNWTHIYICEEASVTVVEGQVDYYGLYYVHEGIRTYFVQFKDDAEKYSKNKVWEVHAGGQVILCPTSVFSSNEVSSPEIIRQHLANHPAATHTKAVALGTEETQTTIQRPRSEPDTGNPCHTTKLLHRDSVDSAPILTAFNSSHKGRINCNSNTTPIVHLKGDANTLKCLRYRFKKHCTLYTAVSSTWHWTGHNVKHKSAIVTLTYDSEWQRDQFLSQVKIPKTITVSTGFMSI

Turning to `Cn1nnnc1SC[C@@H]1C[C@H](c2ccc(CO)cc2)O[C@H](c2ccc(CN)cc2)O1` [compound 2], the Kd worked out at 2.7 nM.
